From PubChem BioAssay (NCI)
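Cultured in 96-well plates, cells were exposed to test compound for 48 hours across five concentrations. At the GI50, growth is halved. At the TGI there is no net growth.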

Columns and labels:
Assay in all cases: inhibition of tumour cell growth, NCI panel, 48 h
MCF7 breast = tested on: MCF7 breast
HCT-15 colon = tested on: HCT-15 colon
MDA-MB-435 = tested on: MDA-MB-435
SF-295 CNS = tested on: SF-295 CNS
ACHN renal = tested on: ACHN renal
OVCAR-4 ovarian = tested on: OVCAR-4 ovarian
MOLT-4 leukemia = tested on: MOLT-4 leukemia
SN12C renal = tested on: SN12C renal
NCI-H522 lung = tested on: NCI-H522 lung
SNB-19 CNS = tested on: SNB-19 CNS
CAKI-1 renal = tested on: CAKI-1 renal
SK-MEL-28 melanoma = tested on: SK-MEL-28 melanoma
SK-OV-3 ovarian = tested on: SK-OV-3 ovarian
HCC-2998 colon = tested on: HCC-2998 colon
HS 578T breast = tested on: HS 578T breast
NCI-H23 lung = tested on: NCI-H23 lung
NCI-H226 lung = tested on: NCI-H226 lung
BT-549 breast = tested on: BT-549 breast
SR leukemia = tested on: SR leukemia
RXF 393 renal = tested on: RXF 393 renal
786-0 renal = tested on: 786-0 renal
UO-31 renal = tested on: UO-31 renal
A549 NSCLC = tested on: A549 NSCLC
HOP-92 NSCLC = tested on: HOP-92 NSCLC
UACC-257 melanoma = tested on: UACC-257 melanoma
SF-268 CNS = tested on: SF-268 CNS
TK-10 renal = tested on: TK-10 renal
U251 CNS = tested on: U251 CNS
M14 melanoma = tested on: M14 melanoma
MALME-3M melanoma = tested on: MALME-3M melanoma
K-562 leukemia = tested on: K-562 leukemia
IGROV1 ovarian = tested on: IGROV1 ovarian
CCRF-CEM leukemia = tested on: CCRF-CEM leukemia
SK-MEL-5 melanoma = tested on: SK-MEL-5 melanoma
PC-3 prostate = tested on: PC-3 prostate
HT29 colon = tested on: HT29 colon
LOX IMVI melanoma = tested on: LOX IMVI melanoma
EKVX NSCLC = tested on: EKVX NSCLC
NCI/ADR-RES ovarian = tested on: NCI/ADR-RES ovarian
KM12 colon = tested on: KM12 colon
SW-620 colon = tested on: SW-620 colon
A498 renal = tested on: A498 renal
OVCAR-8 ovarian = tested on: OVCAR-8 ovarian
HOP-62 NSCLC = tested on: HOP-62 NSCLC
T-47D breast = tested on: T-47D breast
UACC-62 melanoma = tested on: UACC-62 melanoma
SNB-75 CNS = tested on: SNB-75 CNS
MDA-MB-231 breast = tested on: MDA-MB-231 breast
DU-145 prostate = tested on: DU-145 prostate
OVCAR-3 ovarian = tested on: OVCAR-3 ovarian
HL-60(TB) leukemia = tested on: HL-60(TB) leukemia
SF-539 CNS = tested on: SF-539 CNS
HCT-116 colon = tested on: HCT-116 colon
SK-MEL-2 melanoma = tested on: SK-MEL-2 melanoma
RPMI-8226 leukemia = tested on: RPMI-8226 leukemia
OVCAR-5 ovarian = tested on: OVCAR-5 ovarian
NCI-H460 lung = tested on: NCI-H460 lung

For O=C1N[C@@H]2[C@@H](O)[C@@H](O)[C@H](O)C[C@H]2c2cc3c(c(O)c21)OCO3, the GI50 (MCF7 breast) was 0.0656 µM, the TGI (MCF7 breast) was 0.881 µM and the GI50 (HCT-15 colon) was 0.116 µM. It also gave a TGI (HCT-15 colon) of 1.3 µM, a GI50 (MDA-MB-435) of 0.113 µM and a TGI (MDA-MB-435) of 0.648 µM. The GI50 (SF-295 CNS) was 0.157 µM, the TGI (SF-295 CNS) was 1.05 µM and the GI50 (ACHN renal) was 0.132 µM. It also gave a TGI (ACHN renal) of 0.825 µM, a GI50 (OVCAR-4 ovarian) of 0.0994 µM and a TGI (OVCAR-4 ovarian) of 0.975 µM. For the same molecule, the GI50 (MOLT-4 leukemia) was 0.143 µM, the TGI (MOLT-4 leukemia) was over 100 µM and the GI50 (SN12C renal) was 0.0936 µM. It also gave a TGI (SN12C renal) of 1.03 µM, a GI50 (NCI-H522 lung) of 0.0852 µM and a TGI (NCI-H522 lung) of 0.527 µM. For the same molecule, the GI50 (SNB-19 CNS) was 0.0737 µM, the TGI (SNB-19 CNS) was 0.899 µM and the GI50 (CAKI-1 renal) was 0.142 µM. For the same molecule, the TGI (CAKI-1 renal) was 1.16 µM, the GI50 (SK-MEL-28 melanoma) was 0.0965 µM and the TGI (SK-MEL-28 melanoma) was 0.608 µM. It also gave a GI50 (SK-OV-3 ovarian) of 0.211 µM, a TGI (SK-OV-3 ovarian) of 2.1 µM and a GI50 (HCC-2998 colon) of 0.0957 µM. For the same molecule, the TGI (HCC-2998 colon) was 0.418 µM, the GI50 (HS 578T breast) was 0.113 µM and the TGI (HS 578T breast) was 0.713 µM. It also gave a GI50 (NCI-H23 lung) of 0.102 µM, a TGI (NCI-H23 lung) of 0.544 µM and a GI50 (NCI-H226 lung) of 0.128 µM. The TGI (NCI-H226 lung) was 0.699 µM, the GI50 (BT-549 breast) was 0.206 µM and the TGI (BT-549 breast) was 0.803 µM. It also gave a GI50 (SR leukemia) of 0.103 µM, a TGI (SR leukemia) of over 100 µM and a GI50 (RXF 393 renal) of 0.131 µM. The TGI (RXF 393 renal) was 0.562 µM, the GI50 (786-0 renal) was 0.174 µM and the TGI (786-0 renal) was 1.59 µM. The GI50 (UO-31 renal) was 0.147 µM, the TGI (UO-31 renal) was 1.11 µM and the GI50 (A549 NSCLC) was 0.185 µM. For the same molecule, the TGI (A549 NSCLC) was 2.23 µM, the GI50 (HOP-92 NSCLC) was 0.0868 µM and the TGI (HOP-92 NSCLC) was 0.89 µM. The GI50 (UACC-257 melanoma) was 0.131 µM, the TGI (UACC-257 melanoma) was 0.894 µM and the GI50 (SF-268 CNS) was 0.144 µM. The TGI (SF-268 CNS) was 0.991 µM, the GI50 (TK-10 renal) was 0.264 µM and the TGI (TK-10 renal) was 1.73 µM. For the same molecule, the GI50 (U251 CNS) was 0.0736 µM, the TGI (U251 CNS) was 1.06 µM and the GI50 (M14 melanoma) was 0.0813 µM. For the same molecule, the TGI (M14 melanoma) was 0.357 µM, the GI50 (MALME-3M melanoma) was 0.128 µM and the TGI (MALME-3M melanoma) was 0.537 µM. The GI50 (K-562 leukemia) was 0.0834 µM, the TGI (K-562 leukemia) was over 100 µM and the GI50 (IGROV1 ovarian) was 0.207 µM. For the same molecule, the TGI (IGROV1 ovarian) was 1.47 µM, the GI50 (CCRF-CEM leukemia) was 0.105 µM and the GI50 (SK-MEL-5 melanoma) was 0.0841 µM. It also gave a TGI (SK-MEL-5 melanoma) of 0.344 µM, a GI50 (PC-3 prostate) of 0.193 µM and a TGI (PC-3 prostate) of 1.63 µM. For the same molecule, the GI50 (HT29 colon) was 0.119 µM, the TGI (HT29 colon) was 1.05 µM and the GI50 (LOX IMVI melanoma) was 0.0536 µM. It also gave a TGI (LOX IMVI melanoma) of 0.224 µM, a GI50 (EKVX NSCLC) of 0.193 µM and a TGI (EKVX NSCLC) of 1.26 µM. For the same molecule, the GI50 (NCI/ADR-RES ovarian) was 0.223 µM, the TGI (NCI/ADR-RES ovarian) was 1.65 µM and the GI50 (KM12 colon) was 0.0778 µM. It also gave a TGI (KM12 colon) of 0.584 µM, a GI50 (SW-620 colon) of 0.0918 µM and a TGI (SW-620 colon) of 3.26 µM. It also gave a GI50 (A498 renal) of 0.2 µM, a TGI (A498 renal) of 0.541 µM and a GI50 (OVCAR-8 ovarian) of 0.1 µM. It also gave a TGI (OVCAR-8 ovarian) of 1.39 µM, a GI50 (HOP-62 NSCLC) of 0.0977 µM and a TGI (HOP-62 NSCLC) of 0.883 µM. It also gave a GI50 (T-47D breast) of 0.0799 µM, a TGI (T-47D breast) of 2.12 µM and a GI50 (UACC-62 melanoma) of 0.178 µM. The TGI (UACC-62 melanoma) was 0.83 µM, the GI50 (SNB-75 CNS) was 0.0898 µM and the TGI (SNB-75 CNS) was 0.861 µM. The GI50 (MDA-MB-231 breast) was 0.136 µM, the TGI (MDA-MB-231 breast) was 0.926 µM and the GI50 (DU-145 prostate) was 0.0907 µM. It also gave a TGI (DU-145 prostate) of 0.647 µM, a GI50 (OVCAR-3 ovarian) of 0.147 µM and a TGI (OVCAR-3 ovarian) of 0.794 µM. For the same molecule, the GI50 (HL-60(TB) leukemia) was 0.0973 µM, the TGI (HL-60(TB) leukemia) was 0.472 µM and the GI50 (SF-539 CNS) was 0.101 µM. For the same molecule, the TGI (SF-539 CNS) was 0.548 µM, the GI50 (HCT-116 colon) was 0.066 µM and the TGI (HCT-116 colon) was 1.07 µM. It also gave a GI50 (SK-MEL-2 melanoma) of 0.0984 µM, a TGI (SK-MEL-2 melanoma) of 0.415 µM and a GI50 (RPMI-8226 leukemia) of 0.169 µM. It also gave a TGI (RPMI-8226 leukemia) of 0.687 µM, a GI50 (OVCAR-5 ovarian) of 0.238 µM and a TGI (OVCAR-5 ovarian) of 1.61 µM. For the same molecule, the GI50 (NCI-H460 lung) was 0.0838 µM and the TGI (NCI-H460 lung) was 0.743 µM.
